Laboratory results published in ChEMBL document CHEMBL5233235, “Chalcone hybrids as privileged scaffolds in antimalarial drug discovery: A key review” (Eur J Med Chem, 2020).
≈ marks a conversion by molar mass, not a printed value.

Legend:
Plasmodium = test: Antimalarial activity against Plasmodium falciparum K1 by [3H]-hypoxanthine uptake assay; assay type: functional, organism-based
Plasmodium falciparum [1] = test: Antimalarial activity against Plasmodium falciparum; assay type: functional, organism-based
Plasmodium falciparum [2] = test: Antimalarial activity against chloroquine-sensitive Plasmodium falciparum 3D7; assay type: functional, organism-based
Plasmodium falciparum [3] = test: Antimalarial activity against Plasmodium falciparum ATCC 30932 incubated for […]; assay type: functional, organism-based
[4] = Selectivity index, ratio of EC50 for cytotoxicity against mouse FM3A cells to EC50 for antimalarial activity against Plasmodium falciparum ATCC 30932; assay type: toxicity, cell-based; details: read-out: Ratio EC50
[5] = Cytotoxicity against mouse FM3A cells incubated for 48 hrs; assay type: toxicity, cell-based
Plasmodium falciparum [6] = test: Antiparasitic activity against Plasmodium falciparum W2 incubated for 48 hrs by flow cytometry based analysis; assay type: functional, organism-based; details: W2, 48 h
Plasmodium falciparum [7] = test: Antiplasmodial activity against Plasmodium falciparum 3D7 incubated for 30 hrs followed by addition of [3H]-hypoxanthine and measured after 18 hrs by liquid scintillation counting method; assay type: functional, organism-based
[8] = Cytotoxicity against human HepG2 cells; assay type: toxicity, cell-based
Plasmodium falciparum [9] = test: Antimalarial activity against chloroquine-resistant Plasmodium falciparum W2 incubated for 48 hrs by microscopic analysis; assay type: functional, organism-based; details: W2, 48 h
Plasmodium falciparum [10] = test: Antimalarial activity against chloroquine-sensitive Plasmodium falciparum 3D7 by candle jar method; assay type: functional, organism-based
Plasmodium falciparum [11] = test: Antimalarial activity against Plasmodium falciparum 3D7; assay type: functional, organism-based
[12] = Plasmodium falciparum, 3D7, read-out: IC50

In the case of `COc1ccc(C(=O)/C=C/c2cnc3ccccc3c2)c(OC)c1`, the IC50 (Plasmodium) is reported as less than 5000 nM.

With `CCc1ccc(/C=C/C(=O)c2ccc(OC)cc2OC)cc1` the IC50 (Plasmodium) was less than 5000 nM.

In the case of `COc1ccc(/C=C/C(=O)c2ccc(OC)cc2OC)c(OC)c1`, the IC50 (Plasmodium) is reported as less than 5000 nM.

`O=C(/C=C/c1c[nH]c2ccccc12)c1ccccc1O` showed an IC50 (Plasmodium falciparum [1]) of 2100 nM.

Work on `O=C(/C=C/c1ccc([N+](=O)[O-])cc1)c1c(O)c2ccccc2oc1=O` yielded an IC50 (Plasmodium falciparum [2]) of less than 5 µg/mL.

Work on `COc1ccc(C(=O)/C=C/c2ccc(OC)c(OC)c2)c(O)c1` yielded an EC50 (Plasmodium falciparum [3]) of 1 µg/mL (≈ 3.18 µM), a selectivity ratio [4] greater than 3.3 and an EC50 at 48 h [5] greater than 3.3 µg/mL.

`O=C(/C=C/c1cc2ccccc2nc1Cl)c1cc(Br)cc(Cl)c1O` showed an MIC (Plasmodium falciparum [1]) of 10 µg/mL (≈ 23.6 µM).

In the case of `Cc1cccc(C(=O)/C=C(\I)c2cc3ccccc3nc2Cl)c1O`, the MIC (Plasmodium falciparum [1]) is reported as 50 µg/mL (≈ 111 µM).

Molecule `COc1cc(/C=C/C(=O)c2ccc(NS(=O)(=O)c3cc(Cl)ccc3Cl)cc2)cc(OC)c1OC` has an IC50 (Plasmodium falciparum [6]) of 480 nM.

`CCO/C(C)=N/Oc1ccc(C(=O)/C=C/c2cc(OC)ccc2OC)cc1` showed an IC50 (Plasmodium falciparum [7]; [12]) of 6 µg/mL (≈ 16.2 µM).

`CCO/C(C)=N/Oc1ccc(/C=C/C(=O)c2ccc3ccccc3c2)cc1` showed an IC50 (Plasmodium falciparum [7]; [12]) of 12 µg/mL (≈ 33.4 µM) and an IC50 [8] of 54 µg/mL (≈ 150 µM).

For `O=C(/C=C/c1cccc(S(=O)(=O)N2CCOCC2)c1)c1ccccc1`, the IC50 (Plasmodium falciparum [9]) was 2060 nM.

With `COc1ccc(/C=C/C(=O)c2ccc(-n3ncc4ccccc43)cc2)c(OC)c1` the IC50 (Plasmodium falciparum [10]) was 1.1 µg/mL (≈ 2.86 µM).

In the case of `O=C(/C=C/c1ccc(F)cc1F)c1ccc(NS(=O)(=O)c2cc(Cl)ccc2Cl)cc1`, the IC50 (Plasmodium falciparum [6]) is reported as 670 nM.

Molecule `CCO/C(C)=N/Oc1ccc(C(=O)/C=C/c2cc(OC)c(OC)c(OC)c2)cc1` has an IC50 (Plasmodium falciparum [7]; [12]) of 12 µg/mL (≈ 30 µM) and an IC50 [8] of 20 µg/mL (≈ 50.1 µM).

For `COc1ccc2nc(Cl)c(/C=C/C(=O)c3cc(Br)cc(Cl)c3O)cc2c1`, the MIC (Plasmodium falciparum [1]) was 10 µg/mL (≈ 22.1 µM).

Molecule `COc1cc(/C=C/C(=O)c2c[n+]([O-])c3ccccc3[n+]2[O-])cc(OC)c1OC` has an IC50 (Plasmodium falciparum [1]) of 6200 nM.

Molecule `O=C(/C=C/c1ccc2ccccc2c1)c1c[n+]([O-])c2ccccc2[n+]1[O-]` has an IC50 (Plasmodium falciparum [1]) of 5800 nM.

With `CCO/C(C)=N/Oc1ccc(C(=O)/C=C/c2ccc(OCc3ccccc3)cc2)cc1` the IC50 (Plasmodium falciparum [7]; [12]) was 12 µg/mL (≈ 28.9 µM).

With `C[C@@H]1CC[C@H]2[C@@H](C)C(=O)O[C@@H]3O[C@@]4(C)CC[C@@H]1[C@]32OO4` [ARTEMISININ] the IC50 (Plasmodium falciparum [7]) was 0.021 uM/ml.

In the case of `COc1ccc(C(=O)/C=C/c2ccc(O)c(O)c2)c(O)c1` [CALYTHROPSIN], the IC50 (Plasmodium falciparum [11]) is reported as 590 nM.
